ChEMBL document CHEMBL3046438, “Synthesis and Cytotoxic Evaluation of 1,2,3-Trisubstituted 2-(2-Oxoalkyl)-2,3-dihydrobenzimidazoles” (Med Chem Res, 2005)

Key:
RD [1] = assay: Cytotoxicity against Homo sapiens (human) RD cells assessed as cell viability at 10^-4 M after 24 hr by trypan blue exclusion assay relative to control; type: functional; conditions: read-out: Activity
A2058 [2] = assay: Cytotoxicity against Homo sapiens (human) A2058 cells assessed as cell viability at 10^-4 M after 72 hr by trypan blue exclusion assay relative to control; type: functional; conditions: A2058, 72 h, read-out: Activity
RD [3] = assay: Cytotoxicity against Homo sapiens (human) RD cells assessed as cell viability at 10^-4 M after 96 hr by trypan blue exclusion assay relative to control; type: functional; conditions: read-out: Activity
[4] = Cytotoxicity against Homo sapiens (human) FL cells assessed as cell viability at 10^-4 M after 72 hr by trypan blue exclusion assay relative to control; type: cell-based; conditions: read-out: Activity
[5] = Cytotoxicity against Homo sapiens (human) FL cells assessed as cell viability at 10^-4 M after 48 hr by trypan blue exclusion assay relative to control; type: cell-based; conditions: read-out: Activity
RD [6] = assay: Cytotoxicity against Homo sapiens (human) RD cells assessed as cell viability at 10^-4 M after 48 hr by trypan blue exclusion assay relative to control; type: functional; conditions: read-out: Activity
A2058 [7] = assay: Cytotoxicity against Homo sapiens (human) A2058 cells assessed as cell viability at 10^-4 M after 96 hr by trypan blue exclusion assay relative to control; type: functional; conditions: A2058, 96 h, read-out: Activity
[8] = Cytotoxicity against Homo sapiens (human) FL cells assessed as cell viability at 10^-4 M after 96 hr by trypan blue exclusion assay relative to control; type: cell-based; conditions: read-out: Activity
A2058 [9] = assay: Cytotoxicity against Homo sapiens (human) A2058 cells assessed as cell viability at 10^-4 M after 24 hr by trypan blue exclusion assay relative to control; type: functional; conditions: A2058, 24 h, read-out: Activity
RD [10] = assay: Cytotoxicity against Homo sapiens (human) RD cells assessed as cell viability at 10^-4 M after 72 hr by trypan blue exclusion assay relative to control; type: functional; conditions: read-out: Activity
A2058 [11] = assay: Cytotoxicity against Homo sapiens (human) A2058 cells assessed as cell viability at 10^-4 M after 48 hr by trypan blue exclusion assay relative to control; type: functional; conditions: A2058, 48 h, read-out: Activity
[12] = Cytotoxicity against Homo sapiens (human) FL cells assessed as cell viability at 10^-4 M after 24 hr by trypan blue exclusion assay relative to control; type: cell-based; conditions: read-out: Activity

| SMILES | viability at 100 µM (RD [1]) [%] | viability at 100 µM (A2058 [2]) [%] | viability at 100 µM (RD [3]) [%] | viability at 72 h, 100 µM [4] [%] | viability at 48 h, 100 µM [5] [%] | viability at 100 µM (RD [6]) [%] | viability at 100 µM (A2058 [7]) [%] | viability at 96 h, 100 µM [8] [%] | viability at 100 µM (A2058 [9]) [%] | viability at 100 µM (RD [10]) [%] | viability at 100 µM (A2058 [11]) [%] | viability at 24 h, 100 µM [12] [%] |
| --- | --- | --- | --- | --- | --- | --- | --- | --- | --- | --- | --- | --- |
| CCOC(=O)N1c2ccccc2N(C(=O)OCC)C1CC(=O)/C=C/c1ccccc1 | 45.5 | 8.14 | 39.4 | 83.6 | 77.9 | 59.1 | 7.14 | 81.1 | 14.7 | 52.9 | 12.1 | 111 |
| CCOC(=O)N1c2ccccc2N(C(=O)OCC)C1CC(C)=O | 0 | 0 | 0 | 0 | 0 | 0 | 0 | 0 | 0 | 0 | 0 | 0 |
| CCOC(=O)N1c2cc(C)c(C)cc2N(C(=O)OCC)C1CC(C)=O | 31.2 | 69.8 | 17.9 | 15.4 | 31.2 | 40.9 | 70.4 | 39.4 | 82.3 | 24.3 | 57.6 | 111 |
| CCOC(=O)N1c2ccccc2N(C(=O)OCC)C1CC(=O)c1ccccc1 | 86.4 | 53.5 | 88.1 | 74.5 | 83.1 | 93.2 | 65.3 | 77.3 | 94.1 | 92.9 | 106 | 75.7 |
| CCOC(=O)N1c2cc(C)c(C)cc2N(C(=O)OCC)C1CC(=O)c1ccccc1 | 45.5 | 50 | 32.1 | 60 | 46.8 | 52.3 | 31.6 | 62.1 | 97.1 | 47.1 | 83.3 | 67.6 |
| CCOC(=O)N1c2ccccc2N(C(=O)OCC)C1CC(=O)c1ccc(O)cc1 | 27.3 | 9.3 | 3.57 | 7.27 | 11.7 | 13.6 | 6.12 | 4.55 | 35.3 | 5.71 | 12.1 | 29.7 |
| CCOC(=O)N1c2cc(C)c(C)cc2N(C(=O)OCC)C1CC(=O)c1ccc(OC)cc1 | 31.2 | 38.4 | 57.1 | 63.6 | 49.4 | 43.2 | 33.7 | 65.9 | 55.9 | 58.6 | 54.5 | 75.7 |
| CCOC(=O)N1c2ccccc2N(C(=O)OCC)C1CC(=O)Cc1ccccc1 | 63.6 | 11.6 | 11.9 | 5.45 | 10.4 | 31.8 | 6.12 | 3.03 | 41.2 | 14.3 | 21.2 | 27 |
| CCOC(=O)N1c2cc(C)c(C)cc2N(C(=O)OCC)C1CC(=O)/C=C/c1ccccc1 | 86.4 | 80.2 | 79.8 | 60 | 67.5 | 70.5 | 75.5 | 74.2 | 82.3 | 81.4 | 86.4 | 94.6 |
